What was measured:
NIH3T3 cells = experiment: Dose response of saturation library constructs to Acetazolamide or Celecoxib, GFP MFI by FACS; format: cell-based; settings: Acetazolamide vs Celecoxib, 24 hours
Excerpt: The MFI values obtained with Acetazolamide were much higher than the MFIs obtained with Celecoxib treatment.

[1] = system: Activated T cells from human donor; experiment: Cell surface CAR expression of CA2 regulated CAR constructs (CD19-Fc staining); format: cell-based; settings: T cells, 10 μM ligand overnight, day 7 and 9
Procedure: CA2 DD described herein were operably linked to CARs to generate tunable CAR constructs. Activated T cells from human donor were transduced with 10 μL of lentivirus for indicated constructs. […] Cell surface CAR expression was detected the following day by staining the cells with 10 ug/mL CD19-Fc followed by an anti-human-BV421 conjugated secondary antibody. Histograms were plotted from a live cell gate. Similar experiments were also performed at day 8 and the cells were harvested at day 9. The data are shown in Table 20 as percentage CAR positive cells. The stabilization ratio was also calculated and is included in Table 20 as SR.
Activated T cells from human donor were transduced with 10 μL of lentivirus for indicated constructs. […] Cell surface CAR expression was detected the following day by staining the cells with 10 ug/mL CD19-Fc followed by an anti-human-BV421 conjugated secondary antibody. The percent of ligand induced CAR+ cells are plotted from a live cell gate relative to vehicle treated negative control cells.

human primary T cells = experiment: IL15-dependent expansion: T cell numbers and CD4/CD8 ratio by flow cytometry; format: cell-based; settings: continuous Acetazolamide in culture, 10 days
Procedure: To test IL15-dependent expansion, beads were removed on day 10 and cells were washed. […] The T cell numbers (Table 30) and the change in CD4/CD8 ratio (Table 31) were determined by flow cytometry.

T cells = experiment: CD40L expression of CA2 regulated CD40L constructs in T cells by FACS (dose response, time course); format: cell-based; settings: 24 hours
Excerpt: CD40L constructs regulated by Carbonic anhydrase DDs were generated and cloned into lentiviral vectors. Purified T cells were thawed and cultured with aCD3 aCD28 Dynabeads (in the ratio of 3 beads to 1 T cell).
The constructs were transduced in T cells the next day. […]

[2] = Plasma concentration of acetazolamide after single and repeated oral doses; format: in vivo, mice; settings: oral 200 mg/kg, up to 100 hr
[3] = Body weights after repeated daily doses of acetazolamide
Procedure: Body weights were measured for up to 12 days post daily repeated doses on days 0-4 and 8-11 (data not shown).
Dose responsiveness of OT-002175 was tested by measuring total flux in mice receiving repeated ligand dosing for up to 32 days post tumor implant (data not shown).

[4] = CD4+ T cells with OT-001990, Acetazolamide 0.01 μM
[5] = CD4+ T cells with OT-001990, Acetazolamide 0.2 μM
[6] = CD4+ T cells with OT-001990, Acetazolamide 0.8 μM
[7] = CD4+ T cells with OT-001990, Acetazolamide 3.1 μM
[8] = CD4+ T cells with OT-001990, Acetazolamide 12.5 μM
[9] = CD4+ T cells with OT-001990, Acetazolamide 50 μM
[10] = CD8+ T cells with OT-001990, Acetazolamide 0.01 μM
[11] = CD8+ T cells with OT-001990, Acetazolamide 0.05 μM
[12] = CD8+ T cells with OT-001990, Acetazolamide 0.2 μM
[13] = CD8+ T cells with OT-001990, Acetazolamide 0.8 μM
[14] = CD8+ T cells with OT-001990, Acetazolamide 3.1 μM
[15] = CD8+ T cells with OT-001990, Acetazolamide 12.5 μM
[16] = CD8+ T cells with OT-001990, Acetazolamide 50 μM

For `CC(=O)Nc1nnc(S(N)(=O)=O)s1` [Acetazolamide, reference compound], the “MFI values obtained with one ligand compared with the other” value (NIH3T3 cells) was “much higher”, the “CAR regulation compared between ligands” value [1] was “Greater CAR regulation” and the T cell expansion (human primary T cells) was 3.6 fold. The “CD40L MFI” value (T cells; [4]) was 112, the “Percentage CD40L positive cells” value (T cells; [4]) was 4.13% and the “Percentage CD40L positive cells” value (T cells; CD4+ T cells with OT-001990, Acetazolamide 0.05 μM) was 5.44%. For the same molecule, the “CD40L MFI” value (T cells; [5]) was 185, the “Percentage CD40L positive cells” value (T cells; [5]) was 10.3% and the “CD40L MFI” value (T cells; [6]) was 481. For the same molecule, the “Percentage CD40L positive cells” value (T cells; [6]) was 45.6%, the “CD40L MFI” value (T cells; [7]) was 840 and the “Percentage CD40L positive cells” value (T cells; [7]) was 69.3%. The “CD40L MFI” value (T cells; [8]) was 2783, the “Percentage CD40L positive cells” value (T cells; [8]) was 90.3% and the “CD40L MFI” value (T cells; [9]) was 3728. The “Percentage CD40L positive cells” value (T cells; [9]) was 91.1%, the “CD40L MFI” value (T cells; [10]) was 105 and the “Percentage CD40L positive cells” value (T cells; [10]) was 0.59%. For the same molecule, the “CD40L MFI” value (T cells; [11]) was 104, the “Percentage CD40L positive cells” value (T cells; [11]) was 0.44% and the “CD40L MFI” value (T cells; [12]) was 136. For the same molecule, the “Percentage CD40L positive cells” value (T cells; [12]) was 1.48%, the “CD40L MFI” value (T cells; [13]) was 307 and the “Percentage CD40L positive cells” value (T cells; [13]) was 25.2%. The “CD40L MFI” value (T cells; [14]) was 380, the “Percentage CD40L positive cells” value (T cells; [14]) was 41.2% and the “CD40L MFI” value (T cells; [15]) was 1599. For the same molecule, the “Percentage CD40L positive cells” value (T cells; [15]) was 77.2%, the “CD40L MFI” value (T cells; [16]) was 2184 and the “Percentage CD40L positive cells” value (T cells; [16]) was 80.7%. For the same molecule, the “daily 1 hr Cmax values after repeated doses” value [2] was “do not elevate daily 1 hr Cmax values”, the “effects on body weight in efficacy study” value ([3]; 30, 100 and 200 mg/kg acetazolamide) was “comparable effects on body weight” and the “body weight changes from dosing” value ([3]; oral 200 mg/kg, daily repeated doses on days 0-4 and 8-11) was “begin to level off by the end of the first week of daily doses”.

Source: patent US20230026259A1, “CA2 COMPOSITIONS AND METHODS FOR TUNABLE REGULATION” (Obsidian Therapeutics, Inc., priority 2019, published 2023)
